Measured values taken from patent publication US20210079015A1, “NOVEL DIHYDROISOXAZOLE COMPOUNDS AND THEIR USE FOR THE TREATMENT OF HEPATITIS B” (Novartis AG, priority 2017, published 2021).

These compounds were tested on HBV (assay: Anti-HBV assay (inhibition of HBV replication in HepG2.cl42 cells, HBV DNA by qPCR)). Conditions: Hepatitis B virus, 96 h, treated four days, HBV DNA quantified by real time PCR, read-out: HBsAg EC50.
Type: cell-based, HBV ayw strain

SMILES | EC50 [nM]
C[C@H]1Cc2noc(N3CCCCC3=O)c2CN1C(=O)Nc1ccc(C#N)c(F)c1 [Compound 47, (S)—N-(4-cyano-3-fluorophenyl)-6-methyl-3-(2-oxopiperidin-1-yl)-6,7-dihydroisoxazolo[4,3-c]pyridine-5(4H)-carboxamide] | 100 to 1000
Cc1cc(-c2onc3c2CN(C(=O)Nc2cc(F)c(F)c(F)c2)[C@@H](C)C3)no1 [Compound 25, (S)-6-methyl-3-(5-methylisoxazol-3-yl)-N-(3,4,5-trifluorophenyl)-6,7-dihydroisoxazolo[4,3-c]pyridine-5(4H)-carboxamide] | 100 to 1000
O=C(Nc1cc(F)c(F)c(F)c1)N1CCc2noc(N3CCCC3=O)c2C1 [Compound 5.1, 3-(2-oxopyrrolidin-1-yl)-N-(3,4,5-trifluorophenyl)-6,7-dihydroisoxazolo[4,3-c]pyridine-5(4H)-carboxamide] | 100 to 1000
C[C@H]1Cc2noc(N3CCCCC3=O)c2CN1C(=O)Nc1ccccc1 [Compound 54, (S)-6-methyl-3-(2-oxopiperidin-1-yl)-N-phenyl-6,7-dihydroisoxazolo[4,3-c]pyridine-5(4H)-carboxamide] | 100 to 1000
C[C@H]1Cc2noc(N3CCCCC3=O)c2CN1C(=O)Nc1cc(F)c(F)c(F)c1 [Compound 46, (S)-6-methyl-3-(2-oxopiperidin-1-yl)-N-(3,4,5-trifluorophenyl)-6,7-dihydroisoxazolo[4,3-c]pyridine-5(4H)-carboxamide] | < 100
Cc1nc(-c2onc3c2[C@H](C)N(C(=O)Nc2cc(F)c(F)c(F)c2)CC3)co1 [Compound 36] | ≥ 1000
O=C(Nc1cc(F)c(F)c(F)c1)N1CCc2noc(N3CCOC3=O)c2C1 [Compound 5.2, 3-(2-oxooxazolidin-3-yl)-N-(3,4,5-trifluorophenyl)-6,7-dihydroisoxazolo[4,3-c]pyridine-5(4H)-carboxamide] | 100 to 1000
CC1c2c(noc2-c2ccc(F)cc2F)CCN1C(=O)Nc1cc(F)c(F)c(F)c1 (centres unmarked) [Compound 4.1, 3-(2,4-difluorophenyl)-4-methyl-N-(3,4,5-trifluorophenyl)-6,7-dihydroisoxazolo[4,3-c]pyridine-5(4H)-carboxamide] | ≥ 1000
C[C@H]1Cc2noc(-c3ccccc3Cl)c2CN1C(=O)Nc1cc(F)c(F)c(F)c1 [Compound 12] | 100 to 1000
Cc1ccccc1-c1onc2c1CN(C(=O)Nc1cc(F)c(F)c(F)c1)[C@@H](C)C2 [Compound 17] | 100 to 1000
Cc1cccc(-c2onc3c2CN(C(=O)Nc2cc(F)c(F)c(F)c2)[C@@H](C)C3)c1 [Compound 23] | ≥ 1000
C[C@H]1Cc2noc(N3CCOC3=O)c2CN1C(=O)Nc1cc(F)c(F)c(F)c1 [Compound 55, (S)-6-methyl-3-(2-oxooxazolidin-3-yl)-N-(3,4,5-trifluorophenyl)-6,7-dihydroisoxazolo[4,3-c]pyridine-5(4H)-carboxamide] | 100 to 1000
C[C@H]1Cc2noc(-c3ccc(C#N)cc3)c2CN1C(=O)Nc1cc(F)c(F)c(F)c1 [Compound 19] | 100 to 1000
O=C(Nc1cc(F)c(F)c(F)c1)N1CCc2noc(N3CCCC3)c2C1 [Compound 5.3, 3-(pyrrolidin-1-yl)-N-(3,4,5-trifluorophenyl)-6,7-dihydroisoxazolo[4,3-c]pyridine-5(4H)-carboxamide] | ≥ 1000
C[C@H]1c2c(noc2-c2ccn(C)n2)CCN1C(=O)Nc1cc(F)c(F)c(F)c1 [Compound 34] | ≥ 1000
Cc1cc(-c2onc3c2[C@H](C)N(C(=O)Nc2cc(F)c(F)c(F)c2)CC3)no1 [Compound 26, (S)-4-methyl-3-(5-methylisoxazol-3-yl)-N-(3,4,5-trifluorophenyl)-6,7-dihydroisoxazolo[4,3-c]pyridine-5(4H)-carboxamide] | ≥ 1000
CC1Cc2noc(-c3ccc(F)cc3F)c2CN1C(=O)Nc1cc(F)c(F)c(F)c1 (centres unmarked) [Compound 3.1, 3-(2,4-difluorophenyl)-6-methyl-N-(3,4,5-trifluorophenyl)-6,7-dihydroisoxazolo[4,3-c]pyridine-5(4H)-carboxamide] | 100 to 1000
C[C@H]1Cc2noc(N3CCCS3(=O)=O)c2CN1C(=O)Nc1cc(F)c(F)c(F)c1 [Compound 58, (S)-3-(1,1-dioxidoisothiazolidin-2-yl)-6-methyl-N-(3,4,5-trifluorophenyl)-6,7-dihydroisoxazolo[4,3-c]pyridine-5(4H)-carboxamide] | < 100
C[C@H]1Cc2noc(N3C(=O)CCC3=O)c2CN1C(=O)Nc1cc(F)c(F)c(F)c1 [Compound 60, (S)-3-(2,5-dioxopyrrolidin-1-yl)-6-methyl-N-(3,4,5-trifluorophenyl)-6,7-dihydroisoxazolo[4,3-c]pyridine-5(4H)-carboxamide] | ≥ 1000
Cc1nc(-c2onc3c2[C@H](C)N(C(=O)Nc2cc(F)c(F)c(F)c2)CC3)c(C)o1 [Compound 40] | ≥ 1000
Cc1nc(-c2onc3c2CN(C(=O)Nc2cc(F)c(F)c(F)c2)[C@@H](C)C3)cs1 [Compound 29, (S)-6-methyl-3-(2-methylthiazol-4-yl)-N-(3,4,5-trifluorophenyl)-6,7-dihydroisoxazolo[4,3-c]pyridine-5(4H)-carboxamide] | 100 to 1000
C[C@H]1c2c(noc2-c2ccc(F)cn2)CCN1C(=O)Nc1cc(F)c(F)c(F)c1 [Compound 28, (S)-3-(5-fluoropyridin-2-yl)-4-methyl-N-(3,4,5-trifluorophenyl)-6,7-dihydroisoxazolo[4,3-c]pyridine-5(4H)-carboxamide] | 100 to 1000
C[C@H]1Cc2noc(-c3cccc(Cl)c3)c2CN1C(=O)Nc1cc(F)c(F)c(F)c1 [Compound 22] | ≥ 1000
C[C@H]1Cc2noc(N3CCCOC3=O)c2CN1C(=O)Nc1ccc(F)c(C(F)F)c1 [Compound 50, (S)—N-(3-(difluoromethyl)-4-fluorophenyl)-6-methyl-3-(2-oxo-1,3-oxazinan-3-yl)-6,7-dihydroisoxazolo[4,3-c]pyridine-5(4H)-carboxamide] | < 100
C[C@H]1Cc2noc(N3CCCOC3=O)c2CN1C(=O)Nc1ccnc(C(F)F)c1 [Compound 52, (S)—N-(2-(difluoromethyl)pyridin-4-yl)-6-methyl-3-(2-oxo-1,3-oxazinan-3-yl)-6,7-dihydroisoxazolo[4,3-c]pyridine-5(4H)-carboxamide] | 100 to 1000
Cc1nc(-c2onc3c2[C@H](C)N(C(=O)Nc2cc(F)c(F)c(F)c2)CC3)cs1 [Compound 30, (S)-4-methyl-3-(2-methylthiazol-4-yl)-N-(3,4,5-trifluorophenyl)-6,7-dihydroisoxazolo[4,3-c]pyridine-5(4H)-carboxamide] | ≥ 1000
Cc1nc(-c2onc3c2CN(C(=O)Nc2cc(F)c(F)c(F)c2)[C@@H](C)C3)co1 [Compound 35] | 100 to 1000
C[C@H]1Cc2noc(N3CCCC3=O)c2CN1C(=O)Nc1ccc(F)c(C#N)c1 [Compound 53, (S)—N-(3-cyano-4-fluorophenyl)-6-methyl-3-(2-oxopyrrolidin-1-yl)-6,7-dihydroisoxazolo[4,3-c]pyridine-5(4H)-carboxamide] | < 100
O=C(Nc1cc(F)c(F)c(C(F)F)c1)N1CCc2noc(N3CCCOC3=O)c2C1 [Compound 45, N-(3-(difluoromethyl)-4,5-difluorophenyl)-3-(2-oxo-1,3-oxazinan-3-yl)-6,7-dihydroisoxazolo[4,3-c]pyridine-5(4H)-carboxamide] | < 100
